Experiment [1] has as its target T1, FEN1 (Homo sapiens, UniProt P39748).
T1 construct: Full-length FEN1 (1-380) was expressed in Escherichia coli; 6His; made in house; host or cells: Escherichia coli
Nature of the experiment: Fluorescence-based 5′-flap cleavage assay of FEN1 nuclease activity. It is filed as biochemical. The method, then: (§1) MSC778 was dissolved in dimethyl sulphoxide (DMSO) to give a 10 mM stock. FEN1/EXO1: compound was dispensed into black 384-shallow well microplates (Greiner #784076). The compound was dispensed as an 11-point dose response with a 3-fold serial dilution from a top concentration of 10 mM (to give a final in-assay concentration of 100 µM). GEN1/XPG: MSC778 was dispensed into black 1536-well plates (Greiner #782076). The compound was dispensed as a 20-point dose response with a 3-fold serial dilution from a top concentration of 10 mM (to give a final in-assay concentration of 100 µM). The volume of DMSO was adjusted to ensure that each well contained 1% (v/v) DMSO in the final assay. […]
(§2) 5 µl (FEN1/EXO1) or 3 µl per well (GEN1/XPG) of stop buffer (20 mM Tris pH 7.5, 300 mM EDTA) was added to all wells, then the plates were read on the CLARIOstar Plus (BMG LABTECH Ltd.) using the Fluorescein (FITC) wavelengths (Ex 483 ± 14, Em 530 ± 30, Dichroic auto/502.5) and auto focal height/gain settings.
(§3) All data analysis was carried out using Genedata Screener software. IC50 values were calculated using the SmartFit function.
A fluorescence-based 5′-flap cleavage assay, in which quenching of the fluorescence of a fluorescein amidite (FAM) moiety is alleviated by nucleolytic cleavage, was used to measure the nuclease activity of FEN1 (Fig. 1B and Supplementary Fig. S1A). […]

In experiment [2] the test system is HAP1 USP1KO cells. Nature of the experiment: Cell viability assay (CTG), 7 days. In kind it is cell-based. The note with it: two independent USP1KO lines. The method, then: Cells were seeded in 150 μl of media in 96-well plates or in 70 μl of media in 384-well plates pre-dosed with compounds (8–10 points dose response) with a D300e digital dispenser (Tecan) and incubated for 24 h at 37°C and 5% CO2. Cell proliferation at the end of the assay (7 days) was measured using CTG (Promega, G9243). CTG luminescence was normalized to vehicle treated control for each cell line, and data were fitted with a nonlinear regression curve (four parameters) to generate compound sensitivity curves and determine IC50 or EC50 (half maximal inhibitory/effective concentration) values as indicated.

Experiment [3] has as its target T2, EXO1 (Homo sapiens, UniProt Q9UQ84).
T2 construct: EXO1 (1-846); purchased Peak Proteins, Macclesfield, UK
Nature of the experiment: Fluorescence-based nuclease activity assay, EXO1. The note with it: n = 3, SD = 223; cognate substrate. In kind it is biochemical. The method, then:
as §1, with “assay. Control wells containing DMSO alone or inhibitor at sufficient concentration to cause complete inhibition of the reaction were also included.” for “assay.”
as §2, §3

Experiment [4] deals with DLD-1 cells. Nature of the experiment: Cell viability assay (AlamarBlue), 7 days. It is filed as cell-based. Particulars: Homo sapiens, 168 h, DLD-1 wild-type, N = 3. The protocol:
Cells were seeded in 96-well plates and treated the day after seeding with a serial dilution of compounds in technical duplicates. After 7 days, viability was analyzed using the AlamarBlue reagent (BioRad). AlamarBlue was added in an amount equal to 10% of the volume in the well and after a 4–6 h incubation viability was determined by fluorescence analysis using a standard plate reader. Fluorescence was normalized to vehicle treated control for each cell line, and data were fitted in Genedata Screener to generate compound sensitivity curves and determine IC50 or EC50 (half maximal inhibitory/effective concentration) values as indicated.
In general terms: Alamar Blue is a resazurin reagent that responds to reducing activity.

Experiment [5] concerns HCT-116, NCI-H460, SUM149PT, MDA-MB-436 cells. Nature of the experiment: Combination viability assay (CTG, Bliss synergy). Particulars: control in place of MSC778. It is filed as cell-based. The method, then:
For combination analysis, cells were seeded in 70 μl of media in 384-well plates pre-dosed with compounds (5-point dose–response matrix) with a D300e digital dispenser (Tecan). Cell proliferation was determined after 7 days using CTG. Analysis was performed with Genedata Screener (Compound Synergy Extension) to determine Synergy scores (Bliss model), using a formulation whereby the Blissexcess is a continuous value and values higher than 2 are usually considered synergistic, and values between 0 and 2 are usually considered additive.

T1 sequence (P39748 whole entry): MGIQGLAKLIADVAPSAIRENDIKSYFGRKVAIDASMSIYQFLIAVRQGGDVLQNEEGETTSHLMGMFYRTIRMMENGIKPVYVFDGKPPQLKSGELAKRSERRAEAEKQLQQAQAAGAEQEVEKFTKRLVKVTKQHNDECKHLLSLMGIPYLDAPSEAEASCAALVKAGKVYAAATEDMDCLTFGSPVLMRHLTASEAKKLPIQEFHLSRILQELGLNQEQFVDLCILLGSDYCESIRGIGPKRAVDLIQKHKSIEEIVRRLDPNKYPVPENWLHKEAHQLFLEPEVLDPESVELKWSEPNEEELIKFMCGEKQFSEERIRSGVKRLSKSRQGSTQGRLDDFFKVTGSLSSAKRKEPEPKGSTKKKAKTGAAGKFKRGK
T2 sequence (Q9UQ84 whole entry): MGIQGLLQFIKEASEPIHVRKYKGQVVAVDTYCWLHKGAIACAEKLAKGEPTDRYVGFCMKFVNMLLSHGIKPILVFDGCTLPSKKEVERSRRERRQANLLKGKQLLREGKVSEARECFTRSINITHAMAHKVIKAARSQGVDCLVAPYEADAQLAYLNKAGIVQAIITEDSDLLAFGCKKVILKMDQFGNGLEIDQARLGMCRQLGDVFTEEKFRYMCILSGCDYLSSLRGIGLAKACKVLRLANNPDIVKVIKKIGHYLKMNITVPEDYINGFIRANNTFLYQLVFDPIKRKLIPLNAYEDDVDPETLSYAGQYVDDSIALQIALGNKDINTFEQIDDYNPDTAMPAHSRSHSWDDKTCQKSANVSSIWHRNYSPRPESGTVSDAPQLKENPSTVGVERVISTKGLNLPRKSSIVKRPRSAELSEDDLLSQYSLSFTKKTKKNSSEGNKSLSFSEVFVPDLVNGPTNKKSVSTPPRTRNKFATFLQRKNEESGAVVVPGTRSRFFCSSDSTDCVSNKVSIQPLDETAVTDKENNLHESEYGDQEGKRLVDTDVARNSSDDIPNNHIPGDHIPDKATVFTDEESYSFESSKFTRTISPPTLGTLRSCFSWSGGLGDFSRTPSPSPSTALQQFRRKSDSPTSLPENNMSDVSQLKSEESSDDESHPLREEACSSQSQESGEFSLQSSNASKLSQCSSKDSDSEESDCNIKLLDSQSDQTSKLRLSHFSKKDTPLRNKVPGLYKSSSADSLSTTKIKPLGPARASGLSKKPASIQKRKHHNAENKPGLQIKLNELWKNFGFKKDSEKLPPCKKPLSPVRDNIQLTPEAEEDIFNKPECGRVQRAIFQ

What is called IC50 is the concentration needed to halve the response being measured. Higher therefore signals a need for much substance. The EC50 is the concentration needed to bring the measured effect to its halfway point. The low end stands for a more potent agent, the high end for a less potent agent. `C[C@H](Oc1nn2c(c(O)c1=O)C(=O)N1CCOC[C@@H]1C2)c1ccc2ccc(Cl)cc2c1` [MSC778]: in experiment [1] (more potent than MSC781), the “Potency on FEN1 nuclease activity relative to MSC781” value worked out at 16 fold. The half-inhibitory concentration (IC50) in experiment [1] (n = 3, SD = 0.14, cognate 5′ flap substrate) stood at 0.0032 µM; in experiment [3], 0.871 µM. Further, the “Sensitization of USP1KO cell lines compared to isogenic HAP1 WT cells” value in experiment [2] is 3 fold. In experiment [4], this molecule came in with a 50% effective concentration (EC50) of 2.3 µM.

In the case of `C[C@@H](Oc1nn2c(c(O)c1=O)C(=O)N1CCOC[C@@H]1C2)c1ccc2ccc(Cl)cc2c1` [MSC781], the “Combination effects on viability with partner DDR inhibitors” value in experiment [5] is “not observed”.

Values taken from article PMC12684391, “Mechanistic insights into the monotherapy and combination potential of FEN1 inhibition in cancer therapy” (Nucleic Acids Research, 2025).
